In patent US20230399312A1, “SUBSTITUTED PYRIMIDINES AND METHODS OF USE” (THERAVANCE BIOPHARMA R&D IP, LLC, priority 2020, published 2023):

How the values were obtained:
[1] = target: T1, recombinant human ALK5 (TGF-βR1) protein (Homo sapiens, UniProt P36897); assay: Biochemical ALK5 (TGF-βR1) assay to measure pKi (LANCE Ultra ULight kinase assay); conditions: apparent pKi, converted from pIC50 by Cheng-Prusoff
T1 construct: purchased Life Technologies PR9075A
T1 sequence (P36897 34-503): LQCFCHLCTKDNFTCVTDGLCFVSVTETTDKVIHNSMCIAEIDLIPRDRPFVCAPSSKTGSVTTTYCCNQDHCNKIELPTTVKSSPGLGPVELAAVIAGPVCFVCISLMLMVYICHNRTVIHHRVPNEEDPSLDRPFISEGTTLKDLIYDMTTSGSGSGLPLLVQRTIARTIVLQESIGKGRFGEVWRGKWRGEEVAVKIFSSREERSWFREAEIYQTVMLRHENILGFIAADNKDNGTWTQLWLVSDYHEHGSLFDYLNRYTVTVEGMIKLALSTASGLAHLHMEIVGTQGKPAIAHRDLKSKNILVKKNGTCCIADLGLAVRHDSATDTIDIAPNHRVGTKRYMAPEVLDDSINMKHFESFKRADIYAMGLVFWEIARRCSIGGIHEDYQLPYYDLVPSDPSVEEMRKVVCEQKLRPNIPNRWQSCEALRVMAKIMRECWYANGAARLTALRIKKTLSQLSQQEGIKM
Procedure, shortened: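 Cmpd + enzyme, 60 min RT; ATP from 125 μM (5×) stock, 60 min 37 °C; stop 12 mM EDTA/Eu anti-pThr1342 Topo2α Ab (pH 7.0 buffer); TR-FRET 665 nm. DMSO = max, SD-208 = min signal. 4-PL pIC50 → pKi (Cheng-Prusoff).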

[2] = system: TGF-β-stimulated SMAD3 phosphorylation in BEAS-2B cells; assay: Cellular ALK5 potency assay, inhibition of TGF-β stimulated pSMAD3 formation in BEAS-2B cells; format: cell-based; conditions: Homo sapiens, pSMAD3, TGF-β 10 ng/mL, read-out: BEAS2B pIC50 (converted)
Procedure, shortened: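 Human lung epithelial BEAS-2B cells were preincubated 1 h at 37 °C with compound in HBSS/HEPES/1% BSA, then stimulated 30 min with 10 ng/mL TGF-β. pSMAD3 in lysates was quantified by AlphaLISA relative to untreated stimulated cells; reported as pIC50.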

Row | Compound | Ki [1] [nM] | IC50 [2] [nM]
1 | Cc1cccc(-c2nccc(Nc3ccnc(Nc4cc(C(=O)OCC5CNC5)cs4)n3)n2)n1 [Compound 142, azetidin-3-ylmethyl 5-((4-((2-(6-methylpyridin-2-yl)pyrimidin-4-yl)amino)pyrimidin-2-yl)amino)thiophene-3-carboxylate] | 0.0398 to 0.316 | 25.1 to 158
2 | Cc1cccc(-c2nccc(Nc3ccnc(Nc4ccc(N5C[C@@H](C)N[C@@H](C)C5)cc4)n3)n2)n1 [Compound 143, N4-[2-(6-methyl-2-pyridyl)pyrimidin-4-yl]-N2-[4-[rac-(3S,5R)-3,5-dimethylpiperazin-1-yl]phenyl]pyrimidine-2,4-diamine] | 0.0398 to 0.316 | 25.1 to 158
3 | Cc1cccc(-c2nccc(Nc3ccnc(Nc4ccc(N5CCCC(C(=O)O[C@H]6CCNC6)C5)cc4)n3)n2)n1 (stereo partly drawn) [Compound 144, [(3S)-pyrrolidin-3-yl] 1-[4-[[4-[[2-(6-methyl-2-pyridyl)pyrimidin-4-yl]amino]pyrimidin-2-yl]amino]phenyl]piperidine-3-carboxylate] | ≤ 0.0316 | 25.1 to 158
4 | Cc1cccc(-c2nccc(Nc3ccnc(Nc4cccc(NC(=O)C5CCN(C)CC5)c4)n3)n2)n1 [Compound 145, 1-methyl-N-[3-[[4-[[2-(6-methyl-2-pyridyl)pyrimidin-4-yl]amino]pyrimidin-2-yl]amino]phenyl]piperidine-4-carboxamide] | 0.0398 to 0.316 | 25.1 to 158
5 | Cc1cccc(-c2nccc(Nc3ccnc(Nc4ccc(CCO)cc4)n3)n2)n1 [Compound 146, 2-[4-[[4-[[2-(6-methyl-2-pyridyl)pyrimidin-4-yl]amino]pyrimidin-2-yl]amino]phenyl]ethanol] | 0.398 to 3.16 | 25.1 to 158
6 | Cc1cccc(-c2nccc(Nc3ccnc(Nc4ccc(C(=O)OC5CCNCC5)cc4)n3)n2)n1 [Compound 147, 4-piperidyl 4-[[4-[[2-(6-methyl-2-pyridyl)pyrimidin-4-yl]amino]pyrimidin-2-yl]amino]benzoate] | 0.0398 to 0.316 | 25.1 to 158
7 | Cc1cccc(-c2nccc(Nc3ccnc(Nc4nc(C(=O)OC5CCNCC5)cs4)n3)n2)n1 [Compound 148, piperidin-4-yl 2-((4-((2-(6-methylpyridin-2-yl)pyrimidin-4-yl)amino)pyrimidin-2-yl)amino)thiazole-4-carboxylate] | 0.398 to 3.16 | 25.1 to 158
8 | Cc1cccc(-c2nccc(Nc3ccnc(Nc4ccc(N5CCN(C(=O)CSC6CCOC6=O)CC5)cc4)n3)n2)n1 (stereo not shown) [Compound 149, 3-[2-[4-[4-[[4-[[2-(6-methyl-2-pyridyl)pyrimidin-4-yl]amino]pyrimidin-2-yl]amino]phenyl]piperazin-1-yl]-2-oxo-ethyl] sulfanyltetrahydrofuran-2-one] | 0.0398 to 0.316 | 25.1 to 158
9 | Cc1cccc(-c2nccc(Nc3ccnc(Nc4ccc(NC(=O)C5CCN(C)CC5)cc4)n3)n2)n1 [Compound 150, 1-methyl-N-[4-[[4-[[2-(6-methyl-2-pyridyl)pyrimidin-4-yl]amino]pyrimidin-2-yl]amino]phenyl]piperidine-4-carboxamide] | 0.0398 to 0.316 | 25.1 to 158
10 | Cc1cccc(-c2nccc(Nc3ccnc(Nc4ccc(C5=CCC(N)CC5)cc4)n3)n2)n1 (stereo not shown) [Compound 151, N2-[4-(4-aminocyclohexen-1-yl)phenyl]-N4-[2-(6-methyl-2-pyridyl)pyrimidin-4-yl]pyrimidine-2,4-diamine] | 0.0398 to 0.316 | 25.1 to 158
11 | Cc1cccc(-c2nccc(Nc3ccnc(Nc4ccc(CN5CC(C(=O)O[C@@H]6CCNC6)C5)cc4)n3)n2)n1 [Compound 152, [(3R)-pyrrolidin-3-yl] 1-[[4-[[4-[[2-(6-methyl-2-pyridyl)pyrimidin-4-yl]amino]pyrimidin-2-yl]amino]phenyl]methyl] azetidine-3-carboxylate] | 0.0398 to 0.316 | 25.1 to 158
12 | Cc1cccc(-c2nccc(Nc3ccnc(Nc4ccc(N5CCN(C)CC5)cc4)n3)n2)n1 [Compound 153, N2-[4-(4-methylpiperazin-1-yl)phenyl]-N4-[2-(6-methyl-2-pyridyl)pyrimidin-4-yl]pyrimidine-2,4-diamine] | ≤ 0.0316 | 25.1 to 158
13 | Cc1cccc(-c2nccc(Nc3ccnc(Nc4cccc(NC(=O)C5CNC5)c4)n3)n2)n1 [Compound 154, N-[3-[[4-[[2-(6-methyl-2-pyridyl)pyrimidin-4-yl]amino]pyrimidin-2-yl]amino]phenyl]azetidine-3-carboxamide] | 0.0398 to 0.316 | 25.1 to 158
14 | Cc1cccc(-c2nccc(Nc3ccnc(Nc4nc(CN5CCC[C@@H](C(=O)OCC6CNC6)C5)cs4)n3)n2)n1 [Compound 155, azetidin-3-ylmethyl (3R)-1-[[2-[[4-[[2-(6-methyl-2-pyridyl)pyrimidin-4-yl]amino]pyrimidin-2-yl]amino]thiazol-4-yl]methyl]piperidine-3-carboxylate] | 0.398 to 3.16 | 200 to 1260
15 | CCOC(=O)Cc1cc(Nc2nccc(Nc3ccnc(-c4cccc(C)n4)n3)n2)ccc1N1CCNCC1 [Compound 156, ethyl 2-[5-[[4-[[2-(6-methyl-2-pyridyl)pyrimidin-4-yl]amino]pyrimidin-2-yl]amino]-2-piperazin-1-yl-phenyl]acetate] | 0.0398 to 0.316 | 25.1 to 158
16 | Cc1cccc(-c2nccc(Nc3ccnc(Nc4ccc(NCCN5CCNCC5)cc4)n3)n2)n1 [Compound 157, N4-[2-(6-methyl-2-pyridyl)pyrimidin-4-yl]-N2-[4-(2-piperazin-1-ylethylamino)phenyl]pyrimidine-2,4-diamine] | 0.0398 to 0.316 | 200 to 1260
17 | Cc1cccc(-c2nccc(Nc3ccnc(Nc4ccc(NC(=O)C5CCNCC5)c(Cl)c4)n3)n2)n1 [Compound 158, N-[2-chloro-4-[[4-[[2-(6-methyl-2-pyridyl)pyrimidin-4-yl]amino]pyrimidin-2-yl]amino]phenyl]piperidine-4-carboxamide] | 0.0398 to 0.316 | 25.1 to 158
18 | Cc1cccc(-c2nccc(Nc3ccnc(Nc4ccc(N5CCNCC5CC(=O)OC5CNC5)cc4)n3)n2)n1 (stereo not shown) [Compound 159, azetidin-3-yl 2-[1-[4-[[4-[[2-(6-methyl-2-pyridyl)pyrimidin-4-yl]amino]pyrimidin-2-yl]amino]phenyl]piperazin-2-yl]acetate] | 0.0398 to 0.316 | 200 to 1260
19 | Cc1cccc(-c2nccc(Nc3ccnc(Nc4ccc5c(c4)CCNCC5)n3)n2)n1 [Compound 160, N4-[2-(6-methyl-2-pyridyl)pyrimidin-4-yl]-N2-(2,3,4,5-tetrahydro-1H-3-benzazepin-7-yl)pyrimidine-2,4-diamine] | 0.0398 to 0.316 | 25.1 to 158
20 | Cc1cccc(-c2nccc(Nc3ccnc(Nc4ccc(CN5CCC(C(=O)O[C@H]6CCN(C)C6)C5)cc4)n3)n2)n1 (stereo partly drawn) [Compound 161, [(3S)-1-methylpyrrolidin-3-yl] 1-[[4-[[4-[[2-(6-methyl-2-pyridyl)pyrimidin-4-yl]amino]pyrimidin-2-yl]amino]phenyl]methyl] pyrrolidine-3-carboxylate] | 0.0398 to 0.316 | ≤ 20
21 | Cc1cccc(-c2nccc(Nc3ccnc(Nc4ccc(NS(=O)(=O)c5ccc(C(N)=O)cc5)cc4)n3)n2)n1 [Compound 162, 4-[[4-[[4-[[2-(6-methyl-2-pyridyl)pyrimidin-4-yl]amino]pyrimidin-2-yl]amino]phenyl]sulfamoyl] benzamide] | 0.398 to 3.16 | 200 to 1260
22 | Cc1cccc(-c2nccc(Nc3ccnc(Nc4ccc(CN5CC6(CNC6)C5)cc4)n3)n2)n1 [Compound 163, N2-[4-(2,6-diazaspiro[3.3]heptan-2-ylmethyl)phenyl]-N4-[2-(6-methyl-2-pyridyl)pyrimidin-4-yl]pyrimidine-2,4-diamine] | 0.0398 to 0.316 | 25.1 to 158
23 | Cc1cccc(-c2nccc(Nc3ccnc(Nc4cccc(NC(=O)C5(CO)CNC5)c4)n3)n2)n1 [Compound 164, 3-(hydroxymethyl)-N-[3-[[4-[[2-(6-methyl-2-pyridyl)pyrimidin-4-yl]amino]pyrimidin-2-yl]amino]phenyl]azetidine-3-carboxamide] | 0.0398 to 0.316 | 25.1 to 158
24 | Fc1ccc(Cl)cc1-c1nccc(Nc2ccnc(Nc3ccc(CN4CCOCC4)cc3)n2)n1 [Compound 165, N4-[2-(5-chloro-2-fluoro-phenyl)pyrimidin-4-yl]-N2-[4-(morpholinomethyl)phenyl] pyrimidine-2,4-diamine] | 3.98 to 31.6 | 25.1 to 158
25 | Cc1ccc(O)cc1-c1nccc(Nc2ccnc(Nc3ccc(N4CCOCC4)cc3)n2)n1 [Compound 166, 4-methyl-3-[4-[[2-(4-morpholinoanilino)pyrimidin-4-yl]amino]pyrimidin-2-yl]phenol] | 3.98 to 31.6 | 25.1 to 158
26 | Cc1cccc(-c2nccc(Nc3ccnc(Nc4ccc(CN5CC(C(=O)OC6CNC6)C5)cc4)n3)n2)n1 [Compound 167, azetidin-3-yl 1-[[4-[[4-[[2-(6-methyl-2-pyridyl)pyrimidin-4-yl]amino]pyrimidin-2-yl]amino]phenyl]methyl] azetidine-3-carboxylate] | 0.0398 to 0.316 | 25.1 to 158
